Test results: patent US20250282770A1, “BIOLUMINESCENT PROBES TO TRACK STEM CELLS IN VIVO” (THE BOARD OF TRUSTEES OF THE UNIVERSITY OF ILLINOIS, priority 2024, published 2025)

Experiments:
[1] = biological target: T1, ALDH1A1 (Homo sapiens, UniProt P00352); experiment: Logic-gate activation of AlDeLuc by acid, ALDH1A1 and luciferase; dose dependence; assay type: biochemical
T1 construct: inferred from Ni-NTA purification; made in house; host or cells: E. coli BL21(DE3)
T1 sequence (P00352 1-501): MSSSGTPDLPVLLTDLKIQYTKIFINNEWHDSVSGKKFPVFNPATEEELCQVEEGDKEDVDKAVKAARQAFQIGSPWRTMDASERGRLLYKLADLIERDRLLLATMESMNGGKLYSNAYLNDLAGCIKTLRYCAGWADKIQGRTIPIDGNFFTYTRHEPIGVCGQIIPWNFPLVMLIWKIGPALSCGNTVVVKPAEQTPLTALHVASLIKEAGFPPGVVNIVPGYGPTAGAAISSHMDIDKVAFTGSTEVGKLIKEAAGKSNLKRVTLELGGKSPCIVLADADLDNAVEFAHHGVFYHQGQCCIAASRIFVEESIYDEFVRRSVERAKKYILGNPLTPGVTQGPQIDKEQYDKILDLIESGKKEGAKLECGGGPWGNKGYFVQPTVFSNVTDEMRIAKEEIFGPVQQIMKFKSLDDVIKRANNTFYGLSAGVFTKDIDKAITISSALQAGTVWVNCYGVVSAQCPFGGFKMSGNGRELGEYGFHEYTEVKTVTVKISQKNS
Procedure: Dose-dependent Enhancement of AlDeLuc. The response of ALDH1A1 (0.4 μM) against different concentrations of AlDeLuc was measured in a black 96-well plate and was monitored using the IVIS imaging system. Various stocks of AlDeLuc were generated so that 20 μL of the probe solution gave the desired concentration. Stocks were prepared by the following: AlDeLuc was first dissolved in DMSO followed by a 60 minute incubation in equal volume 1 M HCl. Subsequently, the reaction was neutralized with 1 M NaOH and diluted with PBS. To a black 96-well plate, TEA buffer (pH 7.4), NAD^+ (2.5 mM), and either […], 5 μM, 10 μM, or 50 μM of AlDeLuc was added. After 60 minutes, each well was treated with ATP-MgSO4 (45 μL, prepared by mixing 17.78 mM ATP-Mg and 35.56 mM MgSO4 in a 1:1 ratio in PBS buffer) and luciferase (5 μL, 1 mg/mL in PBS containing 10% glycerol) to initiate bioluminescence production. Light was collected immediately after mixing, and the signal enhancement was determined relative to control wells not treated with enzymes. The total volume of each well was 200 μL (TEA (pH 7.4) with 0.2% DMSO). All data reported as the mean±standard deviation (n=4).
Dose-dependent Activation of AlDeLuc by ALDH1A1. The response of AlDeLuc (5 μM) against different concentrations of ALDH1A1 was measured in a black 96-well plate and was monitored using the IVIS imaging system. To a black 96-well plate, PBS (pH 7.4), NAD^+, and either 0.05 μM, 0.1 μM, 0.4 μM, 2 μM, or 4 μM of ALDH1A1, was added AlDeLuc. Immediately after, each well was treated with ATP-MgSO4 (45 μL, prepared by mixing 17.78 mM ATP-Mg and 35.56 mM MgSO4 in a 1:1 ratio in PBS buffer) and luciferase (5 μL, 1 mg/mL in PBS containing 10% glycerol) to initiate bioluminescence production. Light was collected immediately after mixing, and the signal enhancement was determined relative to control wells not treated with enzymes. The total volume of each well was 200 μL (PBS (pH 7.4) with 0.2% DMSO). All data reported as the mean standard deviation (n=3).

[2] = biological target: T2, ALDH1A1 (Mus musculus, UniProt P24549); experiment: Validation of ALDH-mediated activation of AlDeLuc in heterotopic breast cancer model via DEAB inhibition; assay type: in vivo, BALB/c mice; set-up: from tissue; host or cells: 4T1-Luc tumours in BALB/c mice; conditions: AlDeLuc alone 0.55 mg/kg; 40 min after injection
T2 sequence (P24549 1-501): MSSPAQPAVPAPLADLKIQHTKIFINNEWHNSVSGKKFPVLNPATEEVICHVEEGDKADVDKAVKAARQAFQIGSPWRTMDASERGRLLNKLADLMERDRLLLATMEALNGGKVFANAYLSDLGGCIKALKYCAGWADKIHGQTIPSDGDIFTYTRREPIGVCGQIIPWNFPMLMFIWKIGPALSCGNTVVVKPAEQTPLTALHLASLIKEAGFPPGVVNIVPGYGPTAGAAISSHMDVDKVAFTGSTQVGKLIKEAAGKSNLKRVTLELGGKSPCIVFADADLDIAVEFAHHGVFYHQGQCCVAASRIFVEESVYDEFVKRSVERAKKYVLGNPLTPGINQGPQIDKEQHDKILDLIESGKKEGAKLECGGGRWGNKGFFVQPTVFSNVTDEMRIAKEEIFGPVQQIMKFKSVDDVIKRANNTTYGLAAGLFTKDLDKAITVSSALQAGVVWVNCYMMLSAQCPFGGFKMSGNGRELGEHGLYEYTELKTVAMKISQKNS
Procedure: Validation of ALDH-mediated Activation of AlDeLuc in a Heterotopic Breast Cancer Model via DEAB Inhibition. BALB/c mice bearing 4T1-Luc tumors were anesthetized using isoflurane (1-3% for maintenance; up to 5% for induction) in oxygen from a precision vaporizer. After testing to ensure animals are fully under anesthesia, each mouse was administered AlDeLuc via retro-orbital injection (0.55 mg/kg, 1:19 v/v DMSO:PBS). Images were captured using the IVIS imaging system 40 minutes after injection. Bioluminescence light was captured in open mode (no filters were applied). ROIs were drawn around each tumor and summed for each animal. The signal intensity was quantified using the Living Image Analysis Software. After two days, the same animals were anesthetized and co-administered a solution of AlDeLuc and DEAB (0.55 mg/kg and 93 mg/kg respectively, 1:19 v/v DMSO:PBS). After the allotted 40 minutes, the images were captured using the IVIS imaging system. Bioluminescence was collected in open mode (no filters were applied). ROIS were drawn around each tumor and summed for each animal. The signal intensity was quantified using the Living Image Analysis Software.

[3] = system: BALB/c mice; experiment: Evaluation of systemic toxicity of AlDeLuc, H&E staining of organs; assay type: in vivo; conditions: 0.55 mg/kg systemic (retro-orbital); four hours
Procedure: Evaluation of Systemic Toxicity of AlDeLuc in BALB c mice. BALB/c mice were anesthetized and administered AlDeLuc or vehicle via retro-orbital injection (0.55 mg/kg, 1:19 v/v DMSO:PBS). After four hours, mice were euthanized, and their organs were harvested, fixed in formalin, and submitted to Veterinary Medicine for Hematoxylin and eosin staining.

SMILES: CCN(CC)c1ccc2nc(C3=N[C@@H](C(OC)OC)CS3)sc2c1 [AlDeLuc, (S)-2-(4-(dimethoxymethyl)-4,5-dihydrothiazol-2-yl)-N,N-diethylbenzo[d]thiazol-6-amine]
- signal intensity versus amount of ALDH1A1 ([1]; AlDeLuc 5 μM, ALDH1A1 0 to 4 μM): highest ALDH1A1 concentration showed the most intense signal
- signal intensity versus AlDeLuc concentration ([1]; AlDeLuc 2 to 50 μM, ALDH1A1 0.4 μM): concentration-dependent increase
- bioluminescent signal when acidic conditions and ALDH1A1 applied separately, compared to both ([1]; luciferase 0.02 mg/mL): significantly attenuated
- total luminescent counts [2]: 2.18±0.60×10^4
- H&E stains of spleen, kidneys, lungs, heart, liver compared to vehicle animals [3]: indistinguishable
